Reference: US9801381B2, “Form of rimsulfuron, a process for its preparation and use of the same” (ROTAM AGROCHEM INTERNATIONAL COMPANY LIMITED, priority 2015, dated 2017)
Where two headings read alike, the source gives them in different places.

Assays:
[1] = Cleanout test (rimsulfuron residue in polyethylene bottles after rinsing, extracted with acetonitrile); format: physicochemical; details: for Cleanout rating, % (concentration of rimsulfuron herbicide in the acetonitrile solution): dispersed in tap water, stood overnight, lower rating = more effective cleanout
Description: The cleanout test was conducted by dispersing in water a sample to produce a concentration that is normally used when applying the herbicide: 25% rimsulfuron. The sample was added to tap water (300 mL) in a 400 mL beaker and magnetically stirred for 2 minutes. The mixture was then stirred for 2 minutes, whereupon the resulting dispersion was dispensed in three 100 mL aliquots to 4-oz (118 mL) polyethylene bottles. The bottles were capped, inverted twice and allowed to stand overnight.
After standing overnight, each individual bottle was inverted twice and the liquid contents were then poured out. Tap water (10 mL) was added and the bottle was inverted until all sediment was re-suspended, whereupon the contents were poured out. Tap water (100 mL) was added and the bottle was inverted twice and then allowed to stand undisturbed for 10 minutes. The bottle was inverted twice more and the contents were poured out. Acetonitrile (10 mL) was added to the bottle to extract any remaining material. The acetonitrile solution was analyzed by reversed-phase liquid chromatography with UV detection. The cleanout rating (the concentration of rimsulfuron herbicide in the acetonitrile solution) is reported in % in Table 6 below.

[2] = format: physicochemical; details: pH 7 buffer, test temperature e.g. 20° C.
[3] = format: physicochemical
Description: A stock pH 7 buffer solution was prepared by adding aqueous sodium hydroxide solution (0.1 M, 145 mL) to aqueous potassium dihydrogen phosphate solution (0.1 M, 250 mL), and then adding sufficient distilled water to adjust the final volume to 500 mL. At least 1 time and up to about 5 times the amount of rimsulfruon needed for saturation was added to a mixing vessel containing stock buffer solution at the test temperature (e.g., 20° C.). The mixture was magnetically stirred in the dark while being maintained at the test temperature. Samples were periodically removed for analysis. The samples were centrifuged using a high speed, temperature-controlled centrifuge at the test temperature for about 20 minutes at ≧12000 G to remove suspended particles. An aliquot of each supernatant was taken for analysis. The concentration of rimsulfuron in the supernatant was determined by a high pressure liquid chromatography (HPLC) with a reversed phase chromatography column and UV detection. The method should include development of best-fit calibration curves based on at least three standards using linear regression analysis Samples were successively withdrawn from the mixing vessel and analyzed until three successive samples show little or no variation in concentration. The test is preferably replicated to ensure accuracy.

[4] = OD formulation, original concentration 40%
[5] = SG formulation, original concentration 25%
[6] = WG formulation, original concentration 25%

Row | Structure (SMILES) | Cleanout rating, % (concentration of rimsulfuron herbicide in the acetonitrile solution) ([1]; OD formulation) | Cleanout rating, % (concentration of rimsulfuron herbicide in the acetonitrile solution) ([1]; SG formulation) | Cleanout rating, % (concentration of rimsulfuron herbicide in the acetonitrile solution) ([1]; WG formulation) | Concentration measured by HPLC after treatment, % [2, 4] | Concentration measured by HPLC after treatment, % [2, 5] | Concentration measured by HPLC after treatment, % [2, 6] | Cleanout properties compared with the known amorphous rimsulfuron product (in words) ([1]; summary of Table 6) | Solubility compared with amorphous rimsulfuron (in words) [3]
1 | CCS(=O)(=O)c1cccnc1S(=O)(=O)NC(=O)Nc1nc(OC)cc(OC)n1 [Amorphous Rimsulfuron, prepared in Example 1] [1-(4,6-dimethoxypyrimidin-2-yl)-3-(3-ethylsulfonyl-2-pyridylsulfonyl)urea, reference compound] | 26% | 10% | 13% | 14% | 15% | 12% |  | 
2 | CCS(=O)(=O)c1cccnc1S(=O)(=O)NC(=O)Nc1nc(OC)cc(OC)n1 [Rimsulfuron, crystal form A, 98%, prepared in Example 2] [1-(4,6-dimethoxypyrimidin-2-yl)-3-(3-ethylsulfonyl-2-pyridylsulfonyl)urea] | 5% | 0.1% | 2% | 35% | 24.9% | 23% | markedly superior cleanout properties | significant increase in its solubility
